Experimental data published in patent US10273218B2, “BCL-3 inhibitors” (University College Cardiff Consultants Limited, priority 2014, dated 2019).

Assays:
[1] = system: MDA-MB-231-Luc highly metastatic human breast cancer cells; test: in vivo metastasis mouse model, disease free survival; design: species or system Nude mice; settings: 3.5 mg/Kg once daily for 10 days; MDA-MB-231-Luc i.v.; monitored up to 49 days
Procedure: Nude mice are injected i.v. with 200,000 highly metastatic human breast cancer cells expressing luciferase (MDA-MB-231-Luc) then are given a compound of Formula (I) or Formula (Ia) once daily for about 10 days and are monitored for tumours by total body scan using Xenogen-IVIS. Mice with a luciferase signal above background in repeated scans in any part of their torso are scored as having metastatic disease. Total light emission in the abdominal region is quantified at time points up to 49 days post surgery and plotted as mean total light yield.
Nude mice were injected i.v. with 200,000 highly metastatic human breast cancer cells expressing luciferase (MDA-MB-231-Luc) then given 3.5 mg/Kg of compound 12, reference compound A, or Reference compound B once daily for 10 days and monitored for tumours by total body scan using Xenogen-IVIS. Mice with a luciferase signal above background in repeated scans in any part of their torso were scored as having metastatic disease. Total light emission in abdominal region was quantified at time points up to 49 days post surgery and plotted as mean total light yield. Control n=12, Reference compound A n=10, Reference compound B n=4; compound 12 n=4.

[2] = system: human breast cancer cell line MDA-MB-436; test: transwell (Boyden chamber) cell migration assay after scratch; assay type: cell-based; settings: 10 micromolar compound, 24 hours before and 24 hours in transwell chambers, versus DMSO, compound 12, MEKi
Procedure: The migration of cells in the presence of a compound of Formula (I) or Formula (Ia) is determined using a Scratch assay.
For the Scratch Assay, 1 micromolar solutions of the compounds are prepared. In six well plates, the complete growth media of the seeded cells (density […] in 20 mL) is removed and replaced by 3 mL of a fresh one containing compounds of Formula (I) or Formula (Ia). Media is used as a negative compound.
After a 24 h incubation period at 5% CO2 and 37° C., the media is removed and a scratch is performed in each well. 1 mL of fresh complete growth media is used to wash the well. After its removal, 3 mL of a solution containing a compound of Formula (I) or Formula (Ia) is added in each well in triplicate. Pictures of the wells are then taken. After 24 h, pictures of the wells are again taken. […]
The cell migration assay used was the transwell (Boyden chamber) assay of cell migration in human breast cancer cell line MDA-MB-436. After a scratch was performed in each well the cells were incubated with a 10 micromolar solution of compound for 24 hours prior to passage into transwell chambers where they were maintained in the presence of compound for a further 24 hours before assessment of migration (measured by total fluorescence on opposing surface of transwell membrane following staining). Reduced fluorescence directly correlates with number of cells migrated. […]

[3] = system: human breast cancer MDA-MB-231 xenograft; test: in vivo metastasis mouse Model 1 (seeding and early colonization of circulating tumour cells); design: species or system mice; settings: 3.5 mg/Kg intraperitoneal daily for 10 days, relative luminescence of thoracic region
Procedure: In all experiments, each compound was administered by intraperitoneally at 3.5 mg/kg.
One model (Model 1) studied the effect of the compound's ability to inhibit the seeding and early colonization of circulating tumour cells at distal sites, most commonly in the lungs and liver. Human tumour cell lines were injected into the bloodstream of recipient mice, followed by single daily intraperitoneal injections of the compound (3.5 mg/kg in 1% DMSO) for 10 consecutive days. Tumour burden was monitored longitudinally for up to 8 weeks in vivo by live luminescence imaging, and subsequently histology performed on affected organs at the end of the experiment.
Model 1 tested the effect of Bcl3i compounds to inhibit the seeding and early colonization of circulating tumour cells at distal sites, most commonly in the lungs and liver. Human tumour cell lines were injected into the bloodstream of recipient mice, followed by single daily intraperitoneal injections of Bcl3 inhibitor (3.5 mg/kg in 1% DMSO) for 10 consecutive days. Tumour burden was monitored longitudinally for up to 8 weeks in vivo by live luminescence imaging, and subsequently histology performed on affected organs at the end of the experiment.
The X axis represents the number of days after xenograft and the Y axis is the relative luminescence of the thoracic region by Xenon IVIS scanning of mice following injection of d-luciferin for 10 minutes.
MDA-MB-231 human breast cancer cells were used in each of the three xenograft models of metastatic breast cancer.

| Compound | disease free survival [1] | reduction of cell migration (total fluorescence on opposing surface of transwell membrane) [2] | potency of effect in Model 1 relative to compound 28 [3] | inhibition of metastasis / tumour burden in Model 1 ([3]; versus controls and compound 12) |
| --- | --- | --- | --- | --- |
| O=C(Nc1ccccc1C(=O)NCCN1CCOCC1)c1ccccc1F [Reference compound A] | 70% | – | – | – |
| COc1ccc(C(=O)Nc2ccccc2C(=O)NCCN2CCOCC2)cc1 [Reference compound B] | 50% | – | – | – |
| O=C(Nc1ccccc1C(=O)NCCN1CCOCC1)c1ccc2ccccc2c1 [Compound 31] | – | more effective at reducing cell migration than the known potent cell migration inhibitor MEKi | more potent effects than compound 28 | equivalent inhibition of metastasis in vivo to compound 12 |
